In data set [1] the target is various bacterial RNase P. The experiment in a line: RNase P activity assay, various bacterial RNase P. As to conditions: concentration range. It counts as biochemical. The procedure: (§1) Polynucleotide sequences of Neisseria gonnorhoeae, Porphyromonas gingivalis and Streptococcus pneumoniae (SEQ ID NOS: 1, 3 and 5, respectively) expressing amino acid (SEQ ID NOS: 2, 4 and 6, respectively) subunits of RNase P were PCR amplified using standard PCR methodology. The genes encoding the RNA subunit of RNase P were cloned into pUC19 under the transcriptional control of a T7 RNA polymerase promoter. T7 RNA polymerase-mediated run-off in vitro transcription was performed on individual clones to generate the respective RNase P RNAs, which were then purified using Quick Spin columns. cDNAs encoding the protein subunits of the various bacterial species were subcloned into either expression vectors: pCRT7TOPO or pBAD (Invitrogen, Carlsbad, Calif.). Proteins were over-expressed in E. coli as His6-tagged fusion proteins and purified to homogeneity using a combination of cation exchange and immobilized metal affinity chromatography.
(§2) RNase P activity was determined in the presence or absence of AAC inhibitors suspended in 50 mM Tris-Hcl (7.2), 5 % (w/v) polyethylene glycol 8000, 1 mM NH4Cl, 10 mM spermidine, 10 mM MgCl2. Reactions were carried under multiple-tumover conditions (for example, 100 nM of radio-labeled ptRNA^Tyrsu3+ and 0.5 nM E. coli RNase P holoenzyme). […]
(§3) Extent of substrate cleavage was quantified using a PhosphorImager (Molecular Dynamics) and ImageQuant softwares.

The test system of data set [2] is human RNase P. The experiment in a line: Activity of partially purified human RNase P (ptRNA processing). It counts as biochemical. As to conditions: FIG. 5; for inhibition of human RNase P: 7.5 μM; for effect on human RNase P activity: concentrations 10-fold greater than the IC50 values for E. coli RNase P. The protocol: In order to determine if the AAC inhibitors of the present invention cross-react with human RNase P, the activity of a partially purified human enzyme was tested in the absence or presence of various concentrations of NeoR and […].

For data set [3], the system named is RNase P derived from S. pneumoniae. In words: RNase P activity assay (ptRNA processing), reconstituted S. pneumoniae RNase P. To be noted: FIG. 3. In kind it is biochemical, Streptococcus pneumoniae. The procedure: as §1, §2, §3
For data set [4] the following is noted: two single doses of 25 mg/kg body weight for the duration of two hours; cited from earlier work.
Data set [5] concerns RNase P derived from N. gonnorhoeae. The experiment in a line: RNase P activity assay (ptRNA processing), reconstituted N. gonnorhoeae RNase P. It counts as biochemical, Neisseria gonnorhoeae. As to conditions: FIG. 3. The protocol:
as §1, §2, §3

The test system of data set [6] is E. coli RNase P. The experiment in a line: RNase P activity assay (ptRNA processing), in-vitro reconstituted E. coli RNase P. It counts as biochemical. As to conditions: for inhibition of RNase P processing activity: radiolabeled ptRNA Tyr su3+ substrate, FIG. 3; for effect of poly A RNA on ability to inhibit E. coli RNase P: as much as 1 μM poly A RNA added; for IC50: initial reaction velocities at increasing inhibitor concentrations, FIG. 4a-b, read-out: IC50, inhibition of E. coli RNase P activity. The procedure:
RNase P from E. coli was prepared and purified according to Vioque, A. et al. (1988) J. Mol. Biol. 202:835-848 and Gopalan, V. (1997) J. Mol. Biol. 267:818-829.
ptRNA^Tyrsu3+ was prepared by in vitro transcription of FokI-digested pUC19TyrT [Vioque, A. et al. (1988) J. Mol. Biol. 202:835-848].
RNase P activity was determined in the presence or absence of AAC inhibitors suspended in 50 mM Tris-Hcl (7.2), 5 % (w/v) polyethylene glycol 8000, 1 mM NH4Cl, 10 mM spermidine, 10 mM MgCl2. Reactions were carried under multiple-tumover conditions (for example, 100 nM of radio-labeled ptRNA^Tyrsu3+ and 0.5 nM E. coli RNase P holoenzyme).
Following holoenzyme assembly, AAC inhibitors were added to the reaction mixture and incubated for 5 minutes prior to the addition of [^32P]-ptRNA^Tyrsu3+ substrate. Reactions were allowed to proceed for the indicated times and were terminated by adding a quenching dye [7 M Urea, 10 mM EDTA, 10% (v/v) phenol]. Reaction products were resolved by gel electrophoresis (8% polyacrylamide/7 M Urea) and auto-radiograms were obtained.
as §3

The subject of data set [7] is RNase P derived from P. gingivalis. The experiment in a line: RNase P activity assay (ptRNA processing), reconstituted P. gingivalis RNase P. In kind it is biochemical, Porphyromonas gingivalis. As to conditions: FIG. 3. The protocol:
as §1, §2, §3

In data set [8] the test system is RNP complex formed between HIV TAR RNA and Tat-derived peptide. As to conditions: 10-fold excess of tRNA; cited from earlier work.

Chain of RNase P derived from P. gingivalis (as listed by the source): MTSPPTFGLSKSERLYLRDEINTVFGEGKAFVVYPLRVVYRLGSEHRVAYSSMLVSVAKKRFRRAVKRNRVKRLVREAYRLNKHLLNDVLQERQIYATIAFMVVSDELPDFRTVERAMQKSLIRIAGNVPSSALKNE

For orientation: IC50 means the concentration that gives 50% inhibition. In the case of hexa-argininamido-neomycin B [NeoR], the “IC50 for inhibition of various bacterial RNase P” value in data set [1] is reported as “sub-micromolar”. Also, the “inhibition of human RNase P” value in data set [2] was “nearly complete inhibition”. Besides, in data set [2], the “effect on human RNase P activity” value is on record as “largely unaffected”. Further, the “inhibition of RNase P processing activity” value in data set [3] (500 nM NeoR), in data set [5] (500 nM NeoR) and in data set [6] (500 nM NeoR) was “nearly complete inhibition” in each case. For the same compound, the toxicity to mice entry in data set [4] was “not toxic”. Further, the “effect of poly A RNA on ability to inhibit E. coli RNase P” value in data set [6] (FIG. 6) is recorded as “failed to alter”. In addition, the 50% inhibitory concentration (IC50) in data set [6] is 125 nM. Further, the “IC50 fold lower than that of the parental aminoglycoside” value in data set [6] (versus literature value of parental aminoglycoside (Mikkelsen 1999)) amounted to 100 fold. The “susceptibility of RNase P activity to the inhibitor” value in data set [7] (500 nM NeoR) is “less susceptible”.
On to triargininamido-gentamycin C [R3G], for which the “IC50 for inhibition of various bacterial RNase P” value in data set [1] is listed as “sub-micromolar”. In data set [2], the “inhibition of human RNase P” value was “nearly complete inhibition”. Besides, the “effect on human RNase P activity” value in data set [2] is given as “largely unaffected”. The “inhibition of RNase P processing activity” value in data set [3] (1500 nM R3G), in data set [5] (1500 nM R3G) and in data set [6] (1500 nM R3G) was “nearly complete inhibition” in each case. Further, the “effect of poly A RNA on ability to inhibit E. coli RNase P” value in data set [6] (FIG. 6) is reported as “failed to alter”. Besides, the IC50 in data set [6] was determined as 300 nM. The “susceptibility of RNase P activity to the inhibitor” value in data set [7] (1500 nM R3G) is listed as “less susceptible”. In addition, the “effect of tRNA on ability to disrupt the TAR RNA/Tat-derived peptide complex” value in data set [8] is given as “no effect”.
In the case of `N=C(N)NCCC[C@H](N)C(=O)O` [L-Arginine, reference compound], the “inhibition of RNase P specific activity” value in data set [6] (10-fold excess concentration over the ptRNA substrate, FIG. 6) is “did not inhibit”.
